Active and inactive are the calls of the source. The rule behind the calls is not given here.
Experiments:
NRK [1] = test: Effect on Golgi fragmentation in NRK cells for 60 mins; assay type: functional, Rattus norvegicus
NRK [2] = test: Effect on Golgi fragmentation in NRK cells at 30 uM for 60 mins; assay type: functional, Rattus norvegicus

CC1(C)CCC[C@]2(C)[C@@H](OC(=O)c3ccc(OCCCNC(=O)CCCC[C@@H]4SC[C@@H]5NC(=O)N[C@@H]54)cc3OCC3CO3)CC[C@@H]12 (stereo not given in full)
Activity (NRK [1]): <10%

CC1(C)CCC[C@]2(C)[C@@H](OC(=O)c3ccc(OCC4CO4)cc3OCC(=O)NCCOCCOCCNC(=O)CCCC[C@@H]3SC[C@@H]4NC(=O)N[C@@H]43)CC[C@@H]12 (stereo not given in full)
Activity (NRK [1]; Rattus norvegicus): Active

CC1(C)CCC[C@]2(C)[C@@H](OC(=O)c3ccc(N=[N+]=[N-])cc3OCCCNC(=O)CCCC[C@@H]3SC[C@@H]4NC(=O)N[C@@H]43)CC[C@@H]12
Activity (NRK [2]): 50%

CC1(C)CCC[C@]2(C)[C@@H](OC(=O)c3cc(I)c(OCC4CO4)cc3OCC3CO3)CC[C@@H]12 (stereo not given in full)
Activity (NRK [1]): >80%

COC(=O)c1ccc(N=[N+]=[N-])cc1OCCCNC(=O)CCCC[C@@H]1SC[C@@H]2NC(=O)N[C@@H]21
Activity (NRK [2]; Rattus norvegicus): inactive
